Results on three compounds are retold here after US10323056B2, “Crystalline hydrates of 1-(β-D-glucopyranosyl)-4-methyl-3-[5-(4-fluorophenyl)-2-thienylmethyl]benzene” (Lek Pharmaceuticals d.d., priority 2013, dated 2019).

Structures are written as SMILES.

Assay type in all cases: physicochemical
Series [1] can be described thus: Water content by gravimetric moisture sorption/desorption and TGA. Here is the method: The water values at varying relative humidities were obtained by recording moisture sorption isotherms with a SPS-11 moisture sorption analyzer (MD Messtechnik, Ulm, D). […] The equilibrium condition for each step was set to a mass constancy of ±0.005% over 60 min. The temperature was 25±0.1° C.
Thermogravimetric analysis (TGA) was performed using the following equipment/conditions: Thermogravimetric-system TGA-7, Pyris-Software für Windows NT, (Perkin-Elmer, Norwalk, Conn., USA), Platinum-sample holder (50 μl), Nitrogen as the purge gas (Sample purge: 20 mL/min, balance purge: 40 mL/min). Heating rate: 10 K/min; Heating Range: 25-100° C.;

A short description of series [2]: Equilibrium aqueous solubility (HPLC). The conditions noted are these: for Rel. Solubilities: equilibrium aqueous solubility at 25 ± 1° C., relative to forms HxA/HxB = 100. Here is the method:
The aqueous solubilities of 1-(β-D-glucopyranosyl)-4-methyl-3-[5-(4-fluorophenyl)-2-thienylmethyl]benzene forms HxA and HxB of the present invention and the hemihydrate of 1-(β-D-glucopyranosyl)-4-methyl-3-[5-(4-fluorophenyl)-2-thienylmethyl]benzene described in WO 2008/069327 A1 were determined by the equilibrium solubility method. Saturated solutions of 1-(β-D-glucopyranosyl)-4-methyl-3-[5-(4-fluorophenyl)-2-thienylmethyl]benzene, obtained by stirring 50 mg of each crystalline form in 50 mL water were prepared and stirred at 25±1° C. After 60 minutes of stirring, three samples were withdrawn, filtered through 0.45 μm syringe filters and the filtrates were directly analyzed by HPLC. • Column: C18 4.6×150 mm 5 μm • Eluent A: 0.1% formic acid-water solution • Eluent B: 0.1% formic acid-acetonitril solution • Injection vol.: 100 μL • Column Temp.: 25° C. • Wavelength: 220 nm • Pump flow: 1.2 mL/min • Gradient: […]
Using six concentration points of known 1-(β-D-glucopyranosyl)-4-methyl-3-[5-(4-fluorophenyl)-2-thienylmethyl]benzene concentrations a calibration line was fitted by linear regression.

Series [3] can be described thus: Competitive slurry in water (XRPD). The note with it: 50 mg each in 4 mL water, cycled 7 to 10° C. for 4 days, then 10 to 30° C. for 9 days. Here is the method:
A suspension of 50 mg 1-(β-D-glucopyranosyl)-4-methyl-3-[5-(4-fluorophenyl)-2-thienylmethyl]benzene form HxA (for example prepared according to the procedure described in example 1 of the present invention) and 50 mg 1-(β-D-glucopyranosyl)-4-methyl-3-[5-(4-fluorophenyl)-2-thienylmethyl]benzene hemihydrate (for example prepared according to the procedure described in example 1 of WO 2008/069327 A1) in 4 mL water was stirred at moderate velocity using a magnetic stirrer. The temperature during the slurry experiment was first cycled between 7 to 10° C. for 4 days changing the temperature every 2 hours. Thereafter the suspension was cycled in the range of 10 to 30° C. for 9 days changing the temperature every 2 hours.

Turning to `Cc1ccc([C@@H]2O[C@H](CO)[C@@H](O)[C@H](O)[C@H]2O)cc1Cc1ccc(-c2ccc(F)cc2)s1` [form HxB, 1-(β-D-glucopyranosyl)-4-methyl-3-[5-(4-fluorophenyl)-2-thienylmethyl]benzene], the water content entry in series [1] (at a RH of about 40%) is “about 6.4%”; in series [1] (at a RH of about 95%) it was “about 8.0%”.
Turning to `Cc1ccc([C@@H]2O[C@H](CO)[C@@H](O)[C@H](O)[C@H]2O)cc1Cc1ccc(-c2ccc(F)cc2)s1` [form HxA, 1-(β-D-glucopyranosyl)-4-methyl-3-[5-(4-fluorophenyl)-2-thienylmethyl]benzene], the “Rel. Solubilities” value in series [2] is 100%. Also, in series [2] (water, 25.0±1.0° C.), the “increased aqueous solubility compared to the crystalline hemihydrate of WO 2008/069327 A1” value is reported as 10%. In addition, the water content result in series [1] (at a RH of about 0%) is given as “about 0.1%”; in series [1] (at a RH of about 30%), “about 3.5%”. Further, the “solid form stability in competitive slurry with hemihydrate” value in series [3] is “does not transform”.
Consider `Cc1ccc([C@@H]2O[C@H](CO)[C@@H](O)[C@H](O)[C@H]2O)cc1Cc1ccc(-c2ccc(F)cc2)s1` [form Hy0.5, 1-(β-D-glucopyranosyl)-4-methyl-3-[5-(4-fluorophenyl)-2-thienylmethyl]benzene hemihydrate, reference compound], for which the “Rel. Solubilities” value in series [2] (listed as hemihydrate of WO 2008/069327 A1 (=Hy0.5), hemihydrate) was found to be 90%.
